Results as given in patent US5916881A, “High trehalose content syrup” (Kabushiki Kaisha Hayashibara Seibutsu Kagaku Kenkyujo, priority 1996, dated 1999).
Values after ≈ are worked out from the molar mass of the structure shown. “Also recorded” adds a separate entry of the source. Read-outs that look alike come from different tables or passages of the source. Blank lines part the entries; values can stand above or below the compound they belong to.

Tests used:
Assay type in all cases: physicochemical
[1] = Influence of ambient temperature on the water solubility of trehalose (Experiment 1); details: for solubility thermodynamic: water, 5 °C, saturated solution
Description: The water solubility of trehalose at ambient temperature was studied by placing in a glass beaker 10 parts by weight of water and 20 parts by weight of crystalline trehalose hydrate, allowing the solution to stand at 5, 10, 15, 20, 25, 30 or 40° C. while stirring, sampling the solution, filtering the sample, and measuring the trehalose content in the filtrate to determine the solubility of trehalose in 100 g water at each temperature, i.e., the amount (g) of trehalose, d.s.b., that dissolves in 100 g water to give a saturated solution at each temperature.

[2] = Trehalose crystallization inhibitory effect of coexisting saccharides in a trehalose syrup over the water solubility (Experiment 2); details: trehalose dissolved in an amount over the water solubility; summary of Table 2
Description: Trehalose was dissolved by heating in water in an amount of 1.5-times the water solubility at 10° C., and the trehalose solution was allowed to stand at a relatively-cold place for checking the trehalose crystallization inhibitory effect by saccharides. […] With this relationship, testing solutions were prepared by dissolving by heating in 100 parts by weight of water in a respective glass beaker 83 parts by weight of trehalose, and a saccharide in an amount of 10% to the trehalose, i.e., 8.3 parts by weight of the saccharide selected from the group consisting of glucose, maltose, isomaltose, lactose, maltotriose, panose, maltotetraose, sorbitol, maltitol, maltotriitol, sucrose, raffinose, erlose, saccharides such as α-glucosyltrehalose or monoglucosyltrehalose, α-maltosyltrehalose or diglucosyltrehalose, and α-maltotriosyltrehalose or triglucosyltrehalose as disclosed in Japanese Patent Kokai No.143,876/95 by the present applicant; a saccharide such as α-isomaltosyl-α-glucoside or monoglucosyltrehalose as disclosed in Japanese Patent Kokai No.217,784/96 by the same applicant; and a saccharide such as α-maltosyl-α-maltoside or diglucosyltrehalose as disclosed in Japanese Patent Application No.167,486/94 by the same applicant. Each solution was allowed to stand in a thermostatic place kept at 5, 10 or 15° C. for one week, followed by macroscopically observing the presence of trehalose crystal for evaluating the trehalose crystallization inhibitory effect by the saccharides.

[3] = Influence of the concentrations of trehalose and of mono-/diglucosyltrehalose on trehalose crystallization (Experiment 3); design: key to Formation of trehalose crystal: "+" means that it crystallized; "-" means that it did not
Description: The trehalose crystallization inhibitory effect was experimented by dissolving trehalose under heating conditions in water in an amount of 1.5, 2.0, 2.5, 2.8 or 3.3-times the water solubility at 10° C., dissolving in the solution other oligosaccharides having a trehalose structure within their molecules in an amount of 10, 30 or 60% to the trehalose, d.s.b, and allowing the resultant solution to stand at a relatively-low temperature.
Based on the results in Experiment 1, 1.5, 2.0, 2.5, 2.8 and 3.3-times the water solubility of trehalose in 100 parts by weight of water at 10° C. water corresponded to 83, 111, 138, 155 and 182 parts by weight of trehalose anhydride, d.s.b., respectively With this relationship, testing solutions with the composition as shown in Table 3 were prepared by dissolving under heating conditions in a respective glass beaker 100 parts by weight of water, trehalose in a prescribed part by weight, and either monoglucosyltrehalose, i.e., α-glucosyltrehalose or diglucosyltrehalose, i.e., α-maltosyltrehalose in a prescribed ratio, allowing the solution to stand in a thermostatic place kept at 5, 10 or 15° C. for checking the trehalose crystallization inhibitory effect.

Water solubility (in words) ([1]; ambient temperature, summary of Table 1): relatively-low water solubility
solubility thermodynamic ([1]; d.s.b., read-out: Amount of trehalose (g) dissolving in 100 g water): 496 mg/mL (≈ 1450 mM)
solubility thermodynamic ([1]; read-out: Trehalose concentration (%)): 332 mg/mL (≈ 970 mM)
SMILES: OC[C@H]1O[C@H](O[C@H]2O[C@H](CO)[C@@H](O)[C@H](O)[C@H]2O)[C@H](O)[C@@H](O)[C@@H]1O [Trehalose, α, α-trehalose]

Trehalose crystallization inhibitory effect (in words) [2]: specifically and effectively inhibited
Amount of trehalose, times the water solubility, beyond which crystallization of trehalose was observed ([3]; coexisting diglucosyltrehalose): exceeds 2.8 times the water solubility
Formation of trehalose crystal ([3]; water 100, trehalose 83, coexisting saccharide 8.3 parts by weight, 5° C. (1.7-times solubility)): -
Formation of trehalose crystal ([3]; water 100, trehalose 83, coexisting saccharide 8.3 parts by weight, 10° C. (1.5-times solubility)): -
Formation of trehalose crystal ([3]; water 100, trehalose 83, coexisting saccharide 8.3 parts by weight, 15° C. (1.3-times solubility)): -
Formation of trehalose crystal ([3]; water 100, trehalose 83, coexisting saccharide 25 parts by weight, 5° C. (1.7-times solubility)): -
Formation of trehalose crystal ([3]; water 100, trehalose 83, coexisting saccharide 25 parts by weight, 10° C. (1.5-times solubility)): -
Formation of trehalose crystal ([3]; water 100, trehalose 83, coexisting saccharide 25 parts by weight, 15° C. (1.3-times solubility)): -
Formation of trehalose crystal ([3]; water 100, trehalose 83, coexisting saccharide 50 parts by weight, 5° C. (1.7-times solubility)): -
Formation of trehalose crystal ([3]; water 100, trehalose 83, coexisting saccharide 50 parts by weight, 10° C. (1.5-times solubility)): -
Formation of trehalose crystal ([3]; water 100, trehalose 83, coexisting saccharide 50 parts by weight, 15° C. (1.3-times solubility)): -
Formation of trehalose crystal ([3]; water 100, trehalose 111, coexisting saccharide 11 parts by weight, 5° C. (2.2-times solubility)): -
Formation of trehalose crystal ([3]; water 100, trehalose 111, coexisting saccharide 11 parts by weight, 10° C. (2.0-times solubility)): -
Formation of trehalose crystal ([3]; water 100, trehalose 111, coexisting saccharide 11 parts by weight, 15° C. (1.8-times solubility)): -
Formation of trehalose crystal ([3]; water 100, trehalose 111, coexisting saccharide 33 parts by weight, 5° C. (2.2-times solubility)): -
Formation of trehalose crystal ([3]; water 100, trehalose 111, coexisting saccharide 33 parts by weight, 10° C. (2.0-times solubility)): -
Formation of trehalose crystal ([3]; water 100, trehalose 111, coexisting saccharide 33 parts by weight, 15° C. (1.8-times solubility)): -
Formation of trehalose crystal ([3]; water 100, trehalose 111, coexisting saccharide 66 parts by weight, 5° C. (2.2-times solubility)): -
Formation of trehalose crystal ([3]; water 100, trehalose 111, coexisting saccharide 66 parts by weight, 10° C. (2.0-times solubility)): -
Formation of trehalose crystal ([3]; water 100, trehalose 111, coexisting saccharide 66 parts by weight, 15° C. (1.8-times solubility)): -
Formation of trehalose crystal ([3]; water 100, trehalose 138, coexisting saccharide 14 parts by weight, 5° C. (2.8-times solubility)): +
Formation of trehalose crystal ([3]; water 100, trehalose 138, coexisting saccharide 14 parts by weight, 10° C. (2.5-times solubility)): -
Formation of trehalose crystal ([3]; water 100, trehalose 138, coexisting saccharide 14 parts by weight, 15° C. (2.2-times solubility)): -
Formation of trehalose crystal ([3]; water 100, trehalose 138, coexisting saccharide 42 parts by weight, 5° C. (2.8-times solubility)): +
Formation of trehalose crystal ([3]; water 100, trehalose 138, coexisting saccharide 42 parts by weight, 10° C. (2.5-times solubility)): -
Formation of trehalose crystal ([3]; water 100, trehalose 138, coexisting saccharide 42 parts by weight, 15° C. (2.2-times solubility)): -
Formation of trehalose crystal ([3]; water 100, trehalose 138, coexisting saccharide 83 parts by weight, 5° C. (2.8-times solubility)): -
Formation of trehalose crystal ([3]; water 100, trehalose 138, coexisting saccharide 83 parts by weight, 10° C. (2.5-times solubility)): -
Formation of trehalose crystal ([3]; water 100, trehalose 138, coexisting saccharide 83 parts by weight, 15° C. (2.2-times solubility)): -
Formation of trehalose crystal ([3]; water 100, trehalose 155, coexisting saccharide 16 parts by weight, 5° C. (3.1-times solubility)): +
Formation of trehalose crystal ([3]; water 100, trehalose 155, coexisting saccharide 16 parts by weight, 10° C. (2.8-times solubility)): +
Formation of trehalose crystal ([3]; water 100, trehalose 155, coexisting saccharide 16 parts by weight, 15° C. (2.5-times solubility)): -
Formation of trehalose crystal ([3]; water 100, trehalose 155, coexisting saccharide 46 parts by weight, 5° C. (3.1-times solubility)): +
Formation of trehalose crystal ([3]; water 100, trehalose 155, coexisting saccharide 46 parts by weight, 10° C. (2.8-times solubility)): +
Formation of trehalose crystal ([3]; water 100, trehalose 155, coexisting saccharide 46 parts by weight, 15° C. (2.5-times solubility)): -
Formation of trehalose crystal ([3]; water 100, trehalose 155, coexisting saccharide 93 parts by weight, 5° C. (3.1-times solubility)): +
Formation of trehalose crystal ([3]; water 100, trehalose 155, coexisting saccharide 93 parts by weight, 10° C. (2.8-times solubility)): -
Formation of trehalose crystal ([3]; water 100, trehalose 155, coexisting saccharide 93 parts by weight, 15° C. (2.5-times solubility)): -
Formation of trehalose crystal ([3]; water 100, trehalose 182, coexisting saccharide 18 parts by weight, 5° C. (3.7-times solubility)): +
Formation of trehalose crystal ([3]; water 100, trehalose 182, coexisting saccharide 18 parts by weight, 10° C. (3.3-times solubility)): +
Formation of trehalose crystal ([3]; water 100, trehalose 182, coexisting saccharide 18 parts by weight, 15° C. (3.0-times solubility)): +
Formation of trehalose crystal ([3]; water 100, trehalose 182, coexisting saccharide 55 parts by weight, 5° C. (3.7-times solubility)): +
Formation of trehalose crystal ([3]; water 100, trehalose 182, coexisting saccharide 55 parts by weight, 10° C. (3.3-times solubility)): +
Formation of trehalose crystal ([3]; water 100, trehalose 182, coexisting saccharide 55 parts by weight, 15° C. (3.0-times solubility)): +
Formation of trehalose crystal ([3]; water 100, trehalose 182, coexisting saccharide 110 parts by weight, 5° C. (3.7-times solubility)): +
Formation of trehalose crystal ([3]; water 100, trehalose 182, coexisting saccharide 110 parts by weight, 10° C. (3.3-times solubility)): +
Formation of trehalose crystal ([3]; water 100, trehalose 182, coexisting saccharide 110 parts by weight, 15° C. (3.0-times solubility)): +
SMILES: OC[C@H]1O[C@H](O[C@H]2O[C@H](CO)[C@@H](O[C@H]3O[C@H](CO)[C@@H](O[C@H]4O[C@H](CO)[C@@H](O)[C@H](O)[C@H]4O)[C@H](O)[C@H]3O)[C@H](O)[C@H]2O)[C@H](O)[C@@H](O)[C@@H]1O [α-Maltosyltrehalose, α-maltosyltrehalose]
Trehalose crystallization inhibitory effect (in words) ([3]; summary of Table 3, listed as diglucosyltrehalose): satisfactory trehalose crystallization inhibitory effect; also recorded: stronger effect
